# Source: ChEMBL document CHEMBL4190335, “Design of KDM4 Inhibitors with Antiproliferative Effects in Cancer Models” (ACS Med Chem Lett, 2017)
# Active and inactive are the calls of the source. The rule behind the calls is not given here.
# Key:
# [1] = target: T1, Lysine-specific demethylase 4C (Homo sapiens, UniProt Q9H3R0); assay: Inhibition of full-length KDM4C (unknown origin) expressed in human KYSE-150 cells assessed as increase in H3K36me3 level after 24 hrs by HTRF assay
# T1 sequence (Q9H3R0 whole entry): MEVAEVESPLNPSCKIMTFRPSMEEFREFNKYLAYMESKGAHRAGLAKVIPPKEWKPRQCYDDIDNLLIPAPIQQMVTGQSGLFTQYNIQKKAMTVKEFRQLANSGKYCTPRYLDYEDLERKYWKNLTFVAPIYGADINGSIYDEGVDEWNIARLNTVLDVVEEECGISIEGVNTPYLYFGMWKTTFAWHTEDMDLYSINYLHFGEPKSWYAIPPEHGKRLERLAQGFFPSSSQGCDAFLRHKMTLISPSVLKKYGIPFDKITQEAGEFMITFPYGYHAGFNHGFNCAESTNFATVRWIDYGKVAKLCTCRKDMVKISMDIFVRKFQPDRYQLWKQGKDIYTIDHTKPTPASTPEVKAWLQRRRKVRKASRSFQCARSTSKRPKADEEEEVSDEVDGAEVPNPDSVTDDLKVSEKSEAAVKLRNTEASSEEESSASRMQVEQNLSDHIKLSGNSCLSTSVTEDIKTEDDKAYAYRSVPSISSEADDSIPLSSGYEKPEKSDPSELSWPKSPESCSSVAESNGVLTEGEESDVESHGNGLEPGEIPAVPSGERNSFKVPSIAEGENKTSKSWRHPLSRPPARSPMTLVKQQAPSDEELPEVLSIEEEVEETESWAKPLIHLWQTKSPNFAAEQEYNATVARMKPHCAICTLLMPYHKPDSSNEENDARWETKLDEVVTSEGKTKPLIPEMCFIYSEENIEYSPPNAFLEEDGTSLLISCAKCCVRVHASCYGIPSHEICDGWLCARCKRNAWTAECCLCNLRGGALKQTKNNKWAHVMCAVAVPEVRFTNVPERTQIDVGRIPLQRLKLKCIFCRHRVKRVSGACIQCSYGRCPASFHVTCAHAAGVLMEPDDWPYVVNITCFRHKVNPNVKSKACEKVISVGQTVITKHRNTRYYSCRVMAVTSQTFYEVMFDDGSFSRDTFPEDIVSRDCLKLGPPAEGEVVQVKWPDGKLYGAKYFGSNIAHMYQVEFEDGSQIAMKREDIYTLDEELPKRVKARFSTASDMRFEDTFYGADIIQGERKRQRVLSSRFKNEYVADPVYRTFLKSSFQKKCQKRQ
# [2] = target: T1, Lysine-specific demethylase 4C; assay: Inhibition of KDM4C (unknown origin) using biotinylated H3K9me3 peptide and alpha-ketoglutarate as substrate pretreated for 1 hr followed by substrate addition measured after 20 mins in presence of 0.2 mg/ml BSA by LANCE TR-FRET assay
# [3] = target: T2, Lysine-specific demethylase 4C (Homo sapiens) (UniProt Q9H3R0); assay: Inhibition of full-length KDM4C (unknown origin) expressed in human KYSE-150 cells assessed as increase in H3K36me3 level after 24 hrs by HTRF assay
# T2 sequence (whole entry): T1 sequence (Q9H3R0 whole entry)
# KYSE-150 cell line = assay: cells; conditions: Homo sapiens, KYSE-150, 168 h
# Description: Antiproliferative activity against human KYSE-150 cells after 168 hrs by 5-bromo-2'-deoxyuridine thymidine incorporation assay
# Homo sapiens [4] = organism: Homo sapiens; assay: Inhibition of KDM5 in human KYSE-150 cells assessed as increase in H3K4me3 level at higher concentration after 24 hrs by UHPLC-MS/MS analysis; type: cell-based
# [5] = Permeability of the compound by PAMPA; type: ADME; conditions: read-out: permeability
# IMR-90 = assay: Cytotoxicity against human IMR90 cells; type: cell-based
# Homo sapiens [6] = organism: Homo sapiens; assay: Inhibition of KDM6 in human KYSE-150 cells assessed as increase in H3K27me3 level at higher concentration after 24 to 96 hrs by UHPLC-MS/MS analysis; type: cell-based
# [7] = target: Lysine-specific histone demethylase 1A (Homo sapiens) (UniProt O60341); assay: Inhibition of KDM1 in human KYSE-150 cells assessed as increase in H3K4me2 level at higher concentration after 24 hrs by UHPLC-MS/MS analysis; type: cell-based
# [8] = target: T3, Lysine-specific demethylase 2B (Homo sapiens, UniProt Q8NHM5); assay: Inhibition of KDM2B (unknown origin) using biotinylated H3K36me2 peptide and alpha-ketoglutarate as substrate pretreated for 1 hr followed by substrate addition measured after 20 mins by LANCE TR-FRET assay
# T3 sequence (Q8NHM5 whole entry): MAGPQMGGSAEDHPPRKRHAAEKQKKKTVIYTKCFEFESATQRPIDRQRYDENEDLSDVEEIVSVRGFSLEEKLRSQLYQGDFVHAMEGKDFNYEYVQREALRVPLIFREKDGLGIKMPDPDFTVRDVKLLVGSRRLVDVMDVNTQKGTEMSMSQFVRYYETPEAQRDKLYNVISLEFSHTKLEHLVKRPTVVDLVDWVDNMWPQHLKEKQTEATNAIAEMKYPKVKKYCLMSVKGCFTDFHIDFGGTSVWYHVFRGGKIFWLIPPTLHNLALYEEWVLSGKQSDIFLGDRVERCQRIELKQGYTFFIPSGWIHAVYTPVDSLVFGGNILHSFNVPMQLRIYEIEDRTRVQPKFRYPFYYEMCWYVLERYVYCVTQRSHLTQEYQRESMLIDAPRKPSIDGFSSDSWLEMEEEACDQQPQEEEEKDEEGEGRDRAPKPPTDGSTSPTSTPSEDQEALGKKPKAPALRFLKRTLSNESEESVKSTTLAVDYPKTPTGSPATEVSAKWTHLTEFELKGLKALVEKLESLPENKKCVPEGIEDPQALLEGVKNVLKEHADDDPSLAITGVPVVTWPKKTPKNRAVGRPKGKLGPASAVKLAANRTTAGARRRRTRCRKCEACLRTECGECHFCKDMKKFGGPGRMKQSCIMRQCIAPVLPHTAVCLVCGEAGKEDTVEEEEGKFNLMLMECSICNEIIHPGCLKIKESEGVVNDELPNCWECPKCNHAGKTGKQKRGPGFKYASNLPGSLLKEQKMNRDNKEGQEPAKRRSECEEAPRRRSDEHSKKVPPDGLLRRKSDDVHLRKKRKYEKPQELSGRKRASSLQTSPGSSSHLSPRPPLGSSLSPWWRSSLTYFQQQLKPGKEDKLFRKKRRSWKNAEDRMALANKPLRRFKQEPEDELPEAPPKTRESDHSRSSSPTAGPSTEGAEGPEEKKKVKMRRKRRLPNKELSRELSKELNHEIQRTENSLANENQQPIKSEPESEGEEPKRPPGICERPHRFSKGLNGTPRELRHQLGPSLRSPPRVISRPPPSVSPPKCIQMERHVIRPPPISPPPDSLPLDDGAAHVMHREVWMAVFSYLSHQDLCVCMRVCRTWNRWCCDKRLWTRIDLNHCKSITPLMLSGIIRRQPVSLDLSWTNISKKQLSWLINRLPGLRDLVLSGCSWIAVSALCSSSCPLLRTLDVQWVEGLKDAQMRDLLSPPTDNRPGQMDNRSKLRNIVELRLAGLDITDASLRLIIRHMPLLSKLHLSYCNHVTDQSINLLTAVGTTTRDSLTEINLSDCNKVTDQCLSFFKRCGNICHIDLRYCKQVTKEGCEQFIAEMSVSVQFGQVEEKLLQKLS
# [9] = Volume of distribution in CD-1 mouse at 5 mg/kg, iv; type: ADME, organism-based; conditions: in vivo
# [10] = Oral bioavailability in CD-1 mouse at 10 mg/kg; type: ADME, organism-based; conditions: in vivo
# [11] = target: Lysine-specific demethylase 3B (Homo sapiens, UniProt Q7LBC6); assay: Inhibition of KDM3B (unknown origin) using biotinylated H3K9me1 peptide and alpha-ketoglutarate as substrate measured after 20 mins by LANCE TR-FRET assay
# Lysine-specific demethylase 3B, sequence (Q7LBC6 whole entry): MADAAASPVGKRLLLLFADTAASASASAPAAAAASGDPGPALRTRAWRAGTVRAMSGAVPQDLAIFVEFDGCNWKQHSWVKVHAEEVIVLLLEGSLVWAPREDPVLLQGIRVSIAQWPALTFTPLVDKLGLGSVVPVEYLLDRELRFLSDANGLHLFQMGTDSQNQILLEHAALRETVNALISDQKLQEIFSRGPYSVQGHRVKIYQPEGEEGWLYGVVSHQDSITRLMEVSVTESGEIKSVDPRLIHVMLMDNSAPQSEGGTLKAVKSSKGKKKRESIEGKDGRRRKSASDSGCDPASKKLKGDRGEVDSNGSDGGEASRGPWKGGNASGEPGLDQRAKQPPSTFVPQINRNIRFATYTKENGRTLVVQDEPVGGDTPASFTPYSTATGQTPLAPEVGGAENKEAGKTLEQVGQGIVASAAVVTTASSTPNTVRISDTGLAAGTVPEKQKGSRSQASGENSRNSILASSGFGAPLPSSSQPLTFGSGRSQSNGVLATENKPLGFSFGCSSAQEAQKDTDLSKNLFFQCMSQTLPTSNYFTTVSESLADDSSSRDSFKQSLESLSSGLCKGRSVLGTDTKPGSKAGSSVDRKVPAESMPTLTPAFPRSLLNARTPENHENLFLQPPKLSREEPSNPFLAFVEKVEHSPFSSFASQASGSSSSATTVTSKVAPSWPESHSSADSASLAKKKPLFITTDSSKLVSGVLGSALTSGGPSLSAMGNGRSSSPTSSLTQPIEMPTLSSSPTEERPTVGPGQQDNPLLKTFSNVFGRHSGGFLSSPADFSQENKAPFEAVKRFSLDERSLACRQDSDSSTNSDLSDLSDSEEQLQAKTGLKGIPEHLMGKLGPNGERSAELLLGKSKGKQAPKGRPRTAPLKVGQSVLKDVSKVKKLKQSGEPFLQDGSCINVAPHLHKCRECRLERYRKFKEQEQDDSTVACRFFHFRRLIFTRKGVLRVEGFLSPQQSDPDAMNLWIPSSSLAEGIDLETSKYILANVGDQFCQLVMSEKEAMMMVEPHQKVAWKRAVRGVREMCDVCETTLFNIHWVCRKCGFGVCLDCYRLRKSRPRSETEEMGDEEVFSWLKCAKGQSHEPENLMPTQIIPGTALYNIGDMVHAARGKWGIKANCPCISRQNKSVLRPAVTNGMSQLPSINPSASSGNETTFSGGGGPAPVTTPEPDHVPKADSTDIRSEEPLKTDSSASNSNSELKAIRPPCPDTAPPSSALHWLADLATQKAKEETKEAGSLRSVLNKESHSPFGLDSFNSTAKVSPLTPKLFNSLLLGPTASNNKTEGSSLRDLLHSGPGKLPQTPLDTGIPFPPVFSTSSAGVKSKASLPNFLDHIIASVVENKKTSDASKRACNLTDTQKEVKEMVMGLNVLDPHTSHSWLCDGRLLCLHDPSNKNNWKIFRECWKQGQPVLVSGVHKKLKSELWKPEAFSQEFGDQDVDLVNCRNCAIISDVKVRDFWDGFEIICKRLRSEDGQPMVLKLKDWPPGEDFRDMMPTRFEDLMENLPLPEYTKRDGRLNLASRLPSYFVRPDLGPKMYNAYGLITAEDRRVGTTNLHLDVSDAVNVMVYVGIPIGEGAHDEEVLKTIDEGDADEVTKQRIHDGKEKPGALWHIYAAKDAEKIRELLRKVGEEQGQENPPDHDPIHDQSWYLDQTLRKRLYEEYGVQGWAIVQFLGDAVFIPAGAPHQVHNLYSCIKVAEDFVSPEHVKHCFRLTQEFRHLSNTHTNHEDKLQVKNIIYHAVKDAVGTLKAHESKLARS
# [12] = target: Lysine-specific demethylase 6B (Homo sapiens, UniProt O15054); assay: Inhibition of KDM6B (unknown origin) using biotinylated H3K27me3 peptide and alpha-ketoglutarate as substrate pretreated for 1 hr followed by substrate addition measured after 20 mins by LANCE TR-FRET assay
# Lysine-specific demethylase 6B, sequence (O15054 whole entry): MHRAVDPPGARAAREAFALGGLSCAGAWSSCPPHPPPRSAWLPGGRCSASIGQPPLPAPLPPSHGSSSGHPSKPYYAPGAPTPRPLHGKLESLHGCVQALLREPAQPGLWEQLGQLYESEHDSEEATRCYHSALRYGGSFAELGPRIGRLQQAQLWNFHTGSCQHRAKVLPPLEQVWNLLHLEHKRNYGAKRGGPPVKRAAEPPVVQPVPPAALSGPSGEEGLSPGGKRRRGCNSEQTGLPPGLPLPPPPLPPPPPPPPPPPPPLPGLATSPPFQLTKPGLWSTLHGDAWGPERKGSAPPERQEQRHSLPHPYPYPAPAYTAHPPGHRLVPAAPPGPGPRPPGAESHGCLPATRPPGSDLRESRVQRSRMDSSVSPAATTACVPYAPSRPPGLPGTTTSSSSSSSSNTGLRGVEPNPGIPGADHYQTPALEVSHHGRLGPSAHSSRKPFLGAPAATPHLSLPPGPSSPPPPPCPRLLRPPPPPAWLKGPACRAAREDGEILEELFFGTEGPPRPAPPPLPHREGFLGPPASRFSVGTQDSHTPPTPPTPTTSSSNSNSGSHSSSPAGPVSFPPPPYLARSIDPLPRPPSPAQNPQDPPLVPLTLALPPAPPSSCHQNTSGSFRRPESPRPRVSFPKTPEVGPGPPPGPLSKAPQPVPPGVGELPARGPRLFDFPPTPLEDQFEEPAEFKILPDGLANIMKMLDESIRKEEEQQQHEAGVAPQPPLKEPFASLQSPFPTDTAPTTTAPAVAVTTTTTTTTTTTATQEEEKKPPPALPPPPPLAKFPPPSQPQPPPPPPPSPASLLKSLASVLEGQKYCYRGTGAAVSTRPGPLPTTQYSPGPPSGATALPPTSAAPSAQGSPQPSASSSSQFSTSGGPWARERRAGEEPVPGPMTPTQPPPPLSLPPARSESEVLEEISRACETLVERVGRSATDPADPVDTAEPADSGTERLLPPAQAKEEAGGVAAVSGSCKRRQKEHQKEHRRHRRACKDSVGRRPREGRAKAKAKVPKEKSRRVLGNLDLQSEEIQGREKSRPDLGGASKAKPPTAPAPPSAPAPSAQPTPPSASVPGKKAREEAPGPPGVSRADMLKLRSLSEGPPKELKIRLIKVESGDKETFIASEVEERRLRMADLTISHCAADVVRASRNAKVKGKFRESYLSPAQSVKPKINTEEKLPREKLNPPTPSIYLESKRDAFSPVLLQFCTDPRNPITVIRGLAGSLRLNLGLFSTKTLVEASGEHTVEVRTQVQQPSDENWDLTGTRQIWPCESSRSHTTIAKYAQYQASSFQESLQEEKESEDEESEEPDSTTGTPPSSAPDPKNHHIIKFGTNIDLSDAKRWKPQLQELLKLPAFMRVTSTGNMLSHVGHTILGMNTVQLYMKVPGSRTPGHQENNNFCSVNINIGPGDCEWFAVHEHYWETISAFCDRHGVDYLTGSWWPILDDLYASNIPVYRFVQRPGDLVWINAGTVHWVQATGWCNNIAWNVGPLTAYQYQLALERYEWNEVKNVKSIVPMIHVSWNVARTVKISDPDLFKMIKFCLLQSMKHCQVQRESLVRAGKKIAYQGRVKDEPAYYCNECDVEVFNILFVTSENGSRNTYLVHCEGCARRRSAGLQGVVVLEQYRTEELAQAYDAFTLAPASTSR
# [13] = target: T1, Lysine-specific demethylase 4C; assay: Inhibition of KDM4C (unknown origin) using biotinylated H3K9me3 peptide and alpha-ketoglutarate as substrate pretreated for 1 hr followed by substrate addition measured after 20 mins in presence of 0.02 mg/ml BSA by LANCE TR-FRET assay
# [14] = AUC in CD-1 mouse at 10 mg/kg, po; type: ADME, organism-based; conditions: in vivo
# [15] = target: Histone lysine demethylase PHF8 (Homo sapiens, UniProt Q9UPP1); assay: Inhibition of PHF8 (unknown origin) using biotinylated H3K9me1 peptide and alpha-ketoglutarate as substrate measured after 20 mins by LANCE TR-FRET assay
# Histone lysine demethylase PHF8, sequence (Q9UPP1 whole entry): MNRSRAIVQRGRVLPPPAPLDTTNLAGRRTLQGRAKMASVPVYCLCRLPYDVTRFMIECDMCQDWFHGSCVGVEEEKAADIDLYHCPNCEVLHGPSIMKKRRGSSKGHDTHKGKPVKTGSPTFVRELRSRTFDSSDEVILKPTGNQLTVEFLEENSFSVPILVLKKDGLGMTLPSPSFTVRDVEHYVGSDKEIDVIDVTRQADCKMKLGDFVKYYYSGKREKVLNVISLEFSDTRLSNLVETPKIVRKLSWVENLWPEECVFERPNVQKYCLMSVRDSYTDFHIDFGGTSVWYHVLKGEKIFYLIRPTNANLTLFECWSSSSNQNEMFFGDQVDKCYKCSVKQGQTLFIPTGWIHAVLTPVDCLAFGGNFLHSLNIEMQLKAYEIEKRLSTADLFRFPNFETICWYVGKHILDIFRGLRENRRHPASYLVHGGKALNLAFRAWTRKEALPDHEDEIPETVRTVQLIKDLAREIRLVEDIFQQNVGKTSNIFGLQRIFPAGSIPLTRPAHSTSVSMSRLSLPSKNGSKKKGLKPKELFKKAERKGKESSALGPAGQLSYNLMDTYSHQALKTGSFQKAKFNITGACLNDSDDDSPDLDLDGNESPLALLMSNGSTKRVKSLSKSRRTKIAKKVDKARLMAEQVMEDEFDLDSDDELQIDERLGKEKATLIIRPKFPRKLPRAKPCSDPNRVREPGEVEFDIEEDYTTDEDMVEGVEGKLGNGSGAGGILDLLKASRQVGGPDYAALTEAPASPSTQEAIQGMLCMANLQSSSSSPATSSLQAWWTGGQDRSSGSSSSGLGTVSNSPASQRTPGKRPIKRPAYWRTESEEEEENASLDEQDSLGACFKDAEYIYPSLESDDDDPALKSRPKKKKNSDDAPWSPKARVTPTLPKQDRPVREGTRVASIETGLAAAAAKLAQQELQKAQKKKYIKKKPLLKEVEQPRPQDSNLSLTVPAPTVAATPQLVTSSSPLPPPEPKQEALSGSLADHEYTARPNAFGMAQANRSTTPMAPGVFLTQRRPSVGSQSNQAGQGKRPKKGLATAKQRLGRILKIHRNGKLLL
# [16] = target: T4, Lysine-specific demethylase 3A (Homo sapiens, UniProt Q9Y4C1); assay: Inhibition of KDM3A (unknown origin) using biotinylated H3K9me1 peptide and alpha-ketoglutarate as substrate measured after 20 mins by LANCE TR-FRET assay
# T4 sequence (Q9Y4C1 whole entry): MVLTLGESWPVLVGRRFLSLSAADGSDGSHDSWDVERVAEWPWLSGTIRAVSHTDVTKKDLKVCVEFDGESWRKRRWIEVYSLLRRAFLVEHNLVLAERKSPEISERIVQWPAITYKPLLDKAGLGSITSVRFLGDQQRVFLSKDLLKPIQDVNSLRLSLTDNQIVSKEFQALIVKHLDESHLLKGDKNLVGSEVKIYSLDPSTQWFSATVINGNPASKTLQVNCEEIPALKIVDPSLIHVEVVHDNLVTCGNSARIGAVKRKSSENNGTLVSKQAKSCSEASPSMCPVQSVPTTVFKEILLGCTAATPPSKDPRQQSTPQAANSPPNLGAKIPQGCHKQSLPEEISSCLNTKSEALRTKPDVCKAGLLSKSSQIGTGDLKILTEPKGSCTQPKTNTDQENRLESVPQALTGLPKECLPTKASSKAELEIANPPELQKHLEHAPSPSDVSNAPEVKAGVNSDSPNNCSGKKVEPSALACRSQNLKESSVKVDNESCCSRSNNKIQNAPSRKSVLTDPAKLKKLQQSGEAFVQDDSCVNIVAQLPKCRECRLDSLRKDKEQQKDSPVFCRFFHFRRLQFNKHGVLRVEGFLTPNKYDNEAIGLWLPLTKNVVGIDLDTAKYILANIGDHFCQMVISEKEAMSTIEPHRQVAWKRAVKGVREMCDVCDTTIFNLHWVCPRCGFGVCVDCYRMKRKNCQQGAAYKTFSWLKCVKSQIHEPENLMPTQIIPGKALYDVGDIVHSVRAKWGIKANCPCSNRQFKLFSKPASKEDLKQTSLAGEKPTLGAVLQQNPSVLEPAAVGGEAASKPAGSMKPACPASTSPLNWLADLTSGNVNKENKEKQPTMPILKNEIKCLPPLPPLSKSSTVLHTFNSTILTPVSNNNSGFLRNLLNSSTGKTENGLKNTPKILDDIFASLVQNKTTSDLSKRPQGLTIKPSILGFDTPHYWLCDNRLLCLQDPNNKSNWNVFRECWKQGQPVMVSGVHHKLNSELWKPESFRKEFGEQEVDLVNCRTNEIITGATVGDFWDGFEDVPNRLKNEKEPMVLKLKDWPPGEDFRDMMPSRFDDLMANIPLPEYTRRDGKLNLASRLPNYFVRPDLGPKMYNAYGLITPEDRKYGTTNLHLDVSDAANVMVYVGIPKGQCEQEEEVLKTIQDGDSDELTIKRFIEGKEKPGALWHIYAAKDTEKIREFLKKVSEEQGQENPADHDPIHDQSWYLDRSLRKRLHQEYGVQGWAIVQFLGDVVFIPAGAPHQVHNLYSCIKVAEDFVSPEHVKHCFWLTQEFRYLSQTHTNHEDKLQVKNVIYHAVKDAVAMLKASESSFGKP
# [17] = Systemic clearance in CD-1 mouse at 5 mg/kg, iv; type: ADME, organism-based; conditions: in vivo
compound,measurement,setting,value
O=C(O)c1ccncc1NC[C@@H]1CCCc2cc(Sc3ccccc3)ccc21,EC50,[1],19 nM
same,IC50,[2],48 nM
O=C(O)c1ccncc1NC[C@H]1CCCc2ccccc21,inhibition,[3],inactive
same,IC50,[2],> 2000 nM
same,EC50,KYSE-150 cell line,> 100000 nM
COc1ccc2c(c1)CCC[C@H]2CNc1cnccc1C(=O)O,inhibition,Homo sapiens [4],Below limit of detection
same,Papp,[5],1.84 ×10⁻⁶ cm/s
same,EC50,IMR-90,> 30000 nM
same,inhibition,Homo sapiens [6],Active
same,EC50,[1],560 nM
same,inhibition,[3],Dose-dependent effect
same,IC50,[2],6 nM
same,EC50,KYSE-150 cell line,830 nM
same,inhibition,[7],Below limit of detection
O=C(O)c1ccncc1NC[C@@H]1CCCc2ccccc21,IC50,[2],8 nM
same,EC50,KYSE-150 cell line,4000 nM
CN(c1ccccc1)c1ccc2c(c1)CCC[C@H]2CNc1cnccc1C(=O)O,IC50,[8],> 4000 nM
same,Vd,[9],0.675 L/kg
same,bioavailability,[10],30%
same,IC50,[11],> 4000 nM
same,EC50,[1],1.3 nM
same,IC50,[12],> 4000 nM
same,IC50,[13],9 nM
same,AUC,[14],10400 ng·h/mL
same,IC50,[15],> 4000 nM
same,IC50,[16],> 4000 nM
same,clearance,[17],6.9 mL/min/kg
O=C(O)c1ccncc1NCC1CCCc2ccccc21 (centres undefined),IC50,[2],12 nM
same,EC50,KYSE-150 cell line,6000 nM
